Test results reported in patent publication EP1183044B1, “ADJUVANT COMBINATIONS FOR IMMUNIZATION AND VACCINES” (priority 1999, dated 2000).
Read-outs that look alike come from different tables or passages of the source.

Tested on: M.tuberculosis (Erdman)
Assay type: in vivo
Settings: ESAT-6 10 µg/dose three times

Compound | Log10 resistance Lung, Experiment I ([…]) [log10] | Log10 resistance Spleen, Experiment I ([…]) [log10] | Log10 resistance Lung, Experiment I (log10 reduction of bacterial load in lung 6 weeks after aerosol challenge) [log10] | Log10 resistance Spleen, Experiment I (log10 reduction of bacterial load in spleen 6 weeks after aerosol challenge) [log10]
CCCCCCCCCCCCCCCCCC[N+](C)(C)CCCCCCCCCCCCCCCCCC.[Br-] [DDA, dimethyl dioctadecyl ammonium bromide] | < 0.05 | <0.05 | – | –
monophosphoryl lipid A [MPL] | – | – | < 0.05 | <0.05
